Test results taken from article PMC5635026, “Homo-PROTACs: bivalent small-molecule dimerizers of the VHL E3 ubiquitin ligase to induce self-degradation” (Nature Communications, 2017).

Columns and labels:
HIF-1α = assay: TMT MS proteomics in HeLa cells, HIF-1α level; assay type: cell-based, Human; settings: 1 µM, 10 h
Protocol: MS proteomics. Sample preparation. HeLa cells were seeded at 5 × 10^6 on a 10 cm plate 16 h before treatment. […] Cells were incubated at 37 °C and 5% CO2 for 10 h before harvesting. Cells were placed on ice and medium was removed and cells were washed twice with cold PBS. Cells were lysed in 0.5 ml of 100 mM Tris pH 8.0, 4% (w/v) SDS supplemented with protease inhibitor cocktail (Roche). The lysate was pulse sonicated briefly and then centrifuged at 17,000 × g for 15 min at 4 °C. The supernatant fraction of cell extract was snap-frozen in liquid nitrogen and stored in −80 °C freezer. Further sample processing, digestion, desalting, labeling and fractionation were performed as previously described.
nLC-MS/MS analysis. The TMT 10plex fractions were first analyzed as previously described. Briefly, the TMT 10plex fractions were analyzed sequentially on a Q Exactive HF Hybrid Quadrupole-Orbitrap Mass Spectrometer (Thermo Scientific) coupled to an UltiMate 3000 RSLCnano UHPLC system (Thermo Scientific) and EasySpray column (75 μm × 50 cm, PepMap RSLC C18 column, 2 μm, 100 Å, Thermo Scientific). The MS2 isolation window was set to 0.4 Da and the resolution set at 120,000. MS2 resolution was set at 60,000. […] After the first analysis, the TMT labeled fractions were re-analyzed on the Q-Exactive HF using the same instrument settings and a target list generated from a theoretical trypsin digest of VHL. […]

[1] = test system: Hypoxia response element (HRE)-luciferase reporter U2OS-HRE cells; assay: HRE-luciferase reporter assay in U2OS-HRE cells; assay type: cell-based, Human; settings: different concentrations and times
Protocol: Luciferase assay. Assay was performed as described. Briefly, cells (HeLa and U2OS) stably expressing an HRE-luciferase reporter were treated for the indicated times with compounds. Cells were harvested in passive lysis buffer (Promega) and subjected to three freeze-thaw cycles. The soluble lysate fraction was used for assays, performed according to the manufacturer’s instructions (Promega) using a Berthold Lumat LB 9507 Luminometer. Results were normalized for protein concentration, and reported as mean ± s.e.m. from three biological replicates.

pVHL30 = pVHL30 (Homo sapiens, UniProt P40337); assay: Co-treatment / competition experiments on CM11-induced pVHL30 degradation in HeLa cells; assay type: cell-based; set-up: endogenous in cells; host or cells: HeLa; settings: CM11 1 µM 4 h
Sequence of pVHL30 (P40337 whole entry): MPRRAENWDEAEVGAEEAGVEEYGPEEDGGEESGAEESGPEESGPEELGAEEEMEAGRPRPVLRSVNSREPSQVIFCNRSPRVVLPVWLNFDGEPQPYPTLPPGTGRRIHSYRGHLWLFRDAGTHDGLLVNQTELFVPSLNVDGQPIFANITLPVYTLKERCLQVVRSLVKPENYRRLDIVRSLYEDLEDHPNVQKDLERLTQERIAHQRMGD
Protocol: ML4924 and MG132 co-treatment. Cells were transferred in six-well plates with 5 × 10^5 cells per well in 2 ml media in order to achieve 80% confluence the day after. At t = 0, MLN4924 was added into the desired wells at 3 μM final concentration and 0.1% v/v of DMSO. DMSO (0.1% v/v final conc.) was added to the remaining wells in order to match identical conc. of vehicle in all wells. At t = 3 h, MG 132 was added into the desired wells at 50 μM final conc. and 0.1% v/v of DMSO. DMSO (0.1% v/v final conc.) was added to the remaining wells in order to achieve the same conc. of vehicle in all the wells. […] DMSO (0.1% v/v final conc.) was added to the remaining wells to obtain the same conc. of vehicle in all the wells. The total final concentration of DMSO was therefore 0.3% v/v. Plates were incubated for 4 h at 37 °C and 5% CO2 before harvesting. […] Plates were incubated for the desired time at 37 °C and 5% CO2 before harvesting.
Immunoblotting. Cells were lysed in lysis buffer (20 mM Tris pH 8, 150 mM NaCl, 1% Triton × 100) and a protease inhibitor cocktail (Roche) per 10 ml buffer. For protein extracts, the dishes were placed on ice. The media was aspirated and the tissue layer washed twice with ice-cold phosphate buffer saline (PBS). Lysis buffer (120 μl) was added and the cells detached from the surface with a cell scraper. After removal of the insoluble fraction by centrifugation, the protein concentration of the supernatant was determined by Pierce™ Coomassie (Bradford) Protein Assay Kit. Protein extracts were fractionated by SDS-PAGE on 4–12% Tris-Acetate NuPage® Novex® (Life Technologies) polyacrylamide gels and transferred to a nitrocellulose membrane using wet transfer. The membrane was then blocked with 5 % w/v Bovine serum albumin (BSA) in Tris-buffered saline (TBS) with 0.1% w/v Tween-20. For detecting proteins the following primary antibodies in the given concentrations were used: anti-β-Actin (Cell Signaling Technology, 4970S, 13E5) 1:2000, anti-VHL (Cell Signaling Technology, #68547) 1:1000, anti-Hif-1α (BD Biosciences, 610959, clone 54) 1:1,000, anti-hydroxy-HIF-1α (Hyp564) (Cell Signaling Techonology; #3434) 1:1,000, anti-PHD2 (Bethyl Laboratories; A300-322A) 1:1,000, anti-PHD3 (Bethyl Laboratories; A300-327A) 1:1000, anti-CRBN (Proteintech; 11435-1-AP) 1:1,000. Following incubation with a horseradish peroxidase-conjugated secondary antibody (Cell Signaling Technology), the signal was developed using enhanced chemiluminescence (ECL) Western Blotting Detection Kit (Amersham) on Amersham Hyperfilm ECL film (Amersham). Band quantification was performed using ImageJ software and reported as relative amount as ratio of the each protein band relative to the lane’s loading control. The values obtained were then normalized to 0.1% DMSO vehicle control. […]

CM11 activity after pre-treatment with IOX4 (pVHL30; IOX4 50 µM)	CM11-induced degradation of pVHL30 after pre-treatment with MG132 (pVHL30; MG132 50 µM)	CM11-induced degradation after pre-treatment with MLN4924 (pVHL30; MLN4924 3 µM)	CM11-induced pVHL degradation after pre-treatment with VH032 (pVHL30; VH032 150 µM for 30 min)	Compound	protein levels of HIF-1α relative to DMSO (HIF-1α)	luciferase activity relative to DMSO control [1]
				Cc1ncsc1-c1ccc(CNC(=O)[C@@H]2C[C@@H](O)CN2C(=O)[C@@H](NC(=O)COCCOCCOCCOCC(=O)N[C@H](C(=O)N2C[C@H](O)C[C@H]2C(=O)NCc2ccc(-c3scnc3C)cc2)C(C)(C)C)C(C)(C)C)cc1 [CM09, N ^1 ,N ^14-bis((S)-1-((2S,4R)-4-hydroxy-2-((4-(4-methylthiazol-5-yl)benzyl)carbamoyl)pyrrolidin-1-yl)-3,3-dimethyl-1-oxobutan-2-yl)-3,6,9,12-tetraoxatetradecanediamide]	small decrease	
did not impact CM11 activity	completely abrogated	prevented	blocked pVHL degradation	Cc1ncsc1-c1ccc(CNC(=O)[C@@H]2C[C@@H](O)CN2C(=O)[C@@H](NC(=O)COCCOCCOCCOCCOCCOCC(=O)N[C@H](C(=O)N2C[C@H](O)C[C@H]2C(=O)NCc2ccc(-c3scnc3C)cc2)C(C)(C)C)C(C)(C)C)cc1 [CM11, N ^1 ,N ^20-bis((S)-1-((2S,4R)-4-hydroxy-2-((4-(4-methylthiazol-5-yl)benzyl)carbamoyl)pyrrolidin-1-yl)-3,3-dimethyl-1-oxobutan-2-yl)-3,6,9,12,15,18-hexaoxaicosanediamide]		no increase
